Assay results as given in PubChem BioAssay (NCI).
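Briefly, cells in 96-well plates were exposed to five compound concentrations for 48 h, and endpoints were estimated by linear interpolation. At the GI50, growth is halved. TGI denotes the concentration required for complete inhibition of growth.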

Experiments:
Assay in all cases: growth of human tumour cells (NCI), 48 h
HCT-15 colon = tested on: HCT-15 colon
MCF7 breast = tested on: MCF7 breast
SNB-19 CNS = tested on: SNB-19 CNS
SF-539 CNS = tested on: SF-539 CNS
LOX IMVI melanoma = tested on: LOX IMVI melanoma
OVCAR-4 ovarian = tested on: OVCAR-4 ovarian
MOLT-4 leukemia = tested on: MOLT-4 leukemia
SK-MEL-2 melanoma = tested on: SK-MEL-2 melanoma
RPMI-8226 leukemia = tested on: RPMI-8226 leukemia
U251 CNS = tested on: U251 CNS
SW-620 colon = tested on: SW-620 colon
OVCAR-3 ovarian = tested on: OVCAR-3 ovarian

## CCCCCCCCCCCCCCCCCCOc1ccccc1CC(=O)OCC[N+]1(C)CCCCC1
HCT-15 colon
  GI50: 4.65 µM
  TGI: 27.7 µM
MCF7 breast
  GI50: 2.07 µM
  TGI: 4.97 µM
SNB-19 CNS
  GI50: 2.05 µM
  TGI: 4.94 µM
SF-539 CNS
  GI50: 1.97 µM
  TGI: 3.89 µM
LOX IMVI melanoma
  GI50: 1.75 µM
  TGI: 3.18 µM
OVCAR-4 ovarian
  GI50: 2.81 µM
  TGI: 10.5 µM
MOLT-4 leukemia
  GI50: 1.73 µM
  TGI: 3.89 µM

## CN(CCCCCl)P(=O)(OCc1ccc([N+](=O)[O-])o1)OC[C@H]1O[C@@H](n2cc(F)c(=O)[nH]c2=O)C[C@@H]1O (stereo partly drawn)
HCT-15 colon
  TGI: > 100 µM
SK-MEL-2 melanoma
  TGI: 36.1 µM
MCF7 breast
  TGI: 4.45 µM
SNB-19 CNS
  TGI: > 55.3 µM
SF-539 CNS
  TGI: 0.217 µM
RPMI-8226 leukemia
  TGI: 38.4 µM
LOX IMVI melanoma
  TGI: 12.9 µM
U251 CNS
  TGI: 34.6 µM
SW-620 colon
  TGI: > 81.8 µM
OVCAR-3 ovarian
  TGI: 19.1 µM
OVCAR-4 ovarian
  TGI: 33.5 µM
MOLT-4 leukemia
  TGI: > 46.1 µM

## CN1CCc2[nH]c3ccccc3c2C1
HCT-15 colon
  TGI: > 100 µM
SK-MEL-2 melanoma
  TGI: > 100 µM
MCF7 breast
  TGI: > 100 µM
SNB-19 CNS
  TGI: > 100 µM
SF-539 CNS
  TGI: > 100 µM
RPMI-8226 leukemia
  TGI: > 100 µM
LOX IMVI melanoma
  TGI: > 100 µM
U251 CNS
  TGI: > 100 µM
SW-620 colon
  TGI: > 100 µM
OVCAR-3 ovarian
  TGI: > 100 µM
OVCAR-4 ovarian
  TGI: > 100 µM
MOLT-4 leukemia
  TGI: > 100 µM

## CC(CCN)(CCN)[N+](=O)[O-]
HCT-15 colon
  TGI: > 100 µM
SK-MEL-2 melanoma
  TGI: > 100 µM
MCF7 breast
  TGI: > 100 µM
SNB-19 CNS
  TGI: > 100 µM
SF-539 CNS
  TGI: > 100 µM
RPMI-8226 leukemia
  TGI: > 100 µM
LOX IMVI melanoma
  TGI: > 100 µM
U251 CNS
  TGI: > 100 µM
SW-620 colon
  TGI: > 100 µM
OVCAR-3 ovarian
  TGI: > 100 µM
OVCAR-4 ovarian
  TGI: > 100 µM
MOLT-4 leukemia
  TGI: > 100 µM

## NN(CC(=O)O)CC(=O)O
HCT-15 colon
  TGI: > 100 µM
SK-MEL-2 melanoma
  TGI: > 100 µM
MCF7 breast
  TGI: > 100 µM
SNB-19 CNS
  TGI: > 100 µM
SF-539 CNS
  TGI: > 100 µM
RPMI-8226 leukemia
  TGI: > 100 µM
LOX IMVI melanoma
  TGI: > 100 µM
U251 CNS
  TGI: > 100 µM
SW-620 colon
  TGI: > 100 µM
OVCAR-3 ovarian
  TGI: > 100 µM
OVCAR-4 ovarian
  TGI: > 100 µM
MOLT-4 leukemia
  TGI: > 100 µM

## O=C([O-])C[n+]1ccccc1
HCT-15 colon
  TGI: > 100 µM
SK-MEL-2 melanoma
  TGI: > 100 µM
MCF7 breast
  TGI: > 100 µM
SNB-19 CNS
  TGI: > 100 µM
SF-539 CNS
  TGI: > 100 µM
RPMI-8226 leukemia
  TGI: > 100 µM
LOX IMVI melanoma
  TGI: > 100 µM
U251 CNS
  TGI: > 100 µM
SW-620 colon
  TGI: > 100 µM
OVCAR-3 ovarian
  TGI: > 100 µM
OVCAR-4 ovarian
  TGI: > 100 µM
MOLT-4 leukemia
  TGI: > 100 µM

## C[C@]12C=CC(=O)C=C1CC[C@@H]1[C@@H]2CC[C@]2(C)OC(=O)CC[C@@H]12
HCT-15 colon
  TGI: > 500 µM
SK-MEL-2 melanoma
  TGI: > 488 µM
MCF7 breast
  TGI: > 500 µM
SNB-19 CNS
  TGI: > 500 µM
SF-539 CNS
  TGI: > 476 µM
RPMI-8226 leukemia
  TGI: > 500 µM
LOX IMVI melanoma
  TGI: > 500 µM
U251 CNS
  TGI: > 500 µM
SW-620 colon
  TGI: > 496 µM
OVCAR-3 ovarian
  TGI: > 500 µM
OVCAR-4 ovarian
  TGI: > 500 µM
MOLT-4 leukemia
  TGI: > 500 µM

## COc1cc2c(c(O)c1OC)-c1c(cc(OC)c(OC)c1OC)CC(C)C(C)C2 (stereo not drawn)
HCT-15 colon
  TGI: > 100 µM
SK-MEL-2 melanoma
  TGI: > 100 µM
MCF7 breast
  TGI: > 100 µM
SNB-19 CNS
  TGI: > 100 µM
SF-539 CNS
  TGI: > 100 µM
RPMI-8226 leukemia
  TGI: > 100 µM
LOX IMVI melanoma
  TGI: > 100 µM
U251 CNS
  TGI: > 100 µM
SW-620 colon
  TGI: > 100 µM
OVCAR-3 ovarian
  TGI: > 100 µM
OVCAR-4 ovarian
  TGI: > 100 µM
MOLT-4 leukemia
  TGI: 43.4 µM

## Nc1ncnc2c1ncn2C=C=CCO
HCT-15 colon
  TGI: > 100 µM
SK-MEL-2 melanoma
  TGI: > 100 µM
MCF7 breast
  TGI: > 100 µM
SNB-19 CNS
  TGI: > 100 µM
RPMI-8226 leukemia
  TGI: > 100 µM
LOX IMVI melanoma
  TGI: > 100 µM
U251 CNS
  TGI: > 100 µM
SW-620 colon
  TGI: > 100 µM
OVCAR-3 ovarian
  TGI: > 100 µM
OVCAR-4 ovarian
  TGI: > 100 µM
MOLT-4 leukemia
  TGI: > 100 µM

## COCCOC(=O)c1c(C)n([O-])c2cc(Cl)c(Cl)cc2[n+]1=O
HCT-15 colon
  TGI: 22.3 µM
SK-MEL-2 melanoma
  TGI: 72.7 µM
MCF7 breast
  TGI: > 100 µM
SNB-19 CNS
  TGI: > 100 µM
SF-539 CNS
  TGI: 51.1 µM
RPMI-8226 leukemia
  TGI: 18.8 µM
LOX IMVI melanoma
  TGI: 40.8 µM
U251 CNS
  TGI: > 100 µM
SW-620 colon
  TGI: 65.3 µM
OVCAR-3 ovarian
  TGI: 34.5 µM
OVCAR-4 ovarian
  TGI: 30.8 µM
MOLT-4 leukemia
  TGI: 62.5 µM

## C=C1c2ccccc2C(=O)c2c1c1c(C(=O)OC)c(O)ccc1n2Cc1ccccc1
HCT-15 colon
  TGI: 1.2 µM
SK-MEL-2 melanoma
  TGI: 2.39 µM
MCF7 breast
  TGI: 0.763 µM
SNB-19 CNS
  TGI: 1.52 µM
SF-539 CNS
  TGI: 0.657 µM
RPMI-8226 leukemia
  TGI: 0.53 µM
LOX IMVI melanoma
  TGI: 0.628 µM
U251 CNS
  TGI: 0.763 µM
SW-620 colon
  TGI: 1.42 µM
OVCAR-3 ovarian
  TGI: 0.392 µM
OVCAR-4 ovarian
  TGI: 1.77 µM
MOLT-4 leukemia
  TGI: 0.971 µM

## O=C(Nc1ccc(Cl)cc1)c1cc2cc(N=Nc3ccccc3Cl)ccc2oc1=O
HCT-15 colon
  TGI: 24.1 µM
SK-MEL-2 melanoma
  TGI: 47 µM
SNB-19 CNS
  TGI: > 100 µM
SF-539 CNS
  TGI: 31.3 µM
RPMI-8226 leukemia
  TGI: 30.3 µM
U251 CNS
  TGI: 51 µM
SW-620 colon
  TGI: > 100 µM
OVCAR-3 ovarian
  TGI: 75.6 µM
OVCAR-4 ovarian
  TGI: > 100 µM
MOLT-4 leukemia
  TGI: 10.1 µM

## Nc1ncnc2nc[nH]c12
HCT-15 colon
  TGI: > 250 µM
SK-MEL-2 melanoma
  TGI: > 250 µM
MCF7 breast
  TGI: > 162 µM
SNB-19 CNS
  GI50: 105 µM
  TGI: > 146 µM
SF-539 CNS
  TGI: > 250 µM
RPMI-8226 leukemia
  TGI: > 250 µM
LOX IMVI melanoma
  TGI: > 250 µM
U251 CNS
  TGI: > 250 µM
SW-620 colon
  TGI: > 250 µM
OVCAR-3 ovarian
  GI50: 113 µM
  TGI: > 250 µM
OVCAR-4 ovarian
  TGI: > 250 µM
MOLT-4 leukemia
  GI50: 15.8 µM
  TGI: 159 µM
